The values below come from patent US20120053148A1, “INHIBITORS OF HEPATITIS C VIRUS” (GILEAD SCIENCES, INC., priority 2010, published 2012).

The test system of the first assay is HCV Replicon IB. Briefly: HCV replicon assay in Huh-7 cells, genotype 1b (Rluc luciferase readout). In kind it is cell-based, hepatitis C virus. The note with it: Hepatitis C virus, 72 h; 10 uM; 1b-Rluc replicon, Huh-7 cells, 3 days; read-out: Inhibition @ 10 uM in 1b-Rluc.
Turning to `COc1cc(C(F)(F)F)c2nc(-c3nnc(NCC(=O)N(C)C)o3)cc(C)c2c1` [Compound 279], the inhibition at 10 µM worked out at 98.4%.

On to `C=Cc1cc(C(=O)NCc2cccs2)nc2c(C(F)(F)F)cc(-c3ccccc3)cc12` [Compound 174], for which the inhibition at 10 µM worked out at 63.6%.

For the compound `CCC(=O)CNC(=O)c1cc(C)c2cc(C3CC3)cc(C(F)(F)F)c2n1` [Compound 95], the inhibition at 10 µM amounted to 100%.

As to `Cc1cc(-c2nnc(NCCS(=O)(=O)N(C)C)o2)nc2c(C(F)(F)F)cc(C3CC3)cc12` [Compound 270], the inhibition at 10 µM worked out at 84.7%.

In the case of `Nc1cc(C(=O)NCC2COCCN2)nc2c(C(F)(F)F)cc(C3CC3)cc12` (centres unmarked) [Compound 218], the inhibition at 10 µM is 99.9%.

In the case of `CC(=O)N1CCOCC1CNC(=O)c1cc(C)c2cc(C3CC3)cc(C(F)(F)F)c2n1` (centres unmarked) [Compound 101], the inhibition at 10 µM came to 73.3%.

For the compound `Nc1cc(C(=O)NCc2ccccn2)nc2c(OC(F)(F)F)cc(C3CC3)cc12` [Compound 235], the inhibition at 10 µM amounted to 100%.

Consider `Cc1cc(C(=O)NCc2ccccn2)nc2c(C(F)(F)F)cc(C3CC3)cc12` [Compound 79], for which the inhibition at 10 µM came out at 100%.

Turning to `Cc1cc(C(=O)NCc2ccccn2)nc2c(C(F)(F)F)cc(C#CC(C)(C)C)cc12` [Compound 145], the inhibition at 10 µM was found to be 72%.

As to `Cc1cc(C(=O)NCc2ccccn2)nc2c(C(F)(F)F)cc(OC(F)F)cc12` [Compound 187], the inhibition at 10 µM turned out to be 99.9%.

As for `Cc1cc(-c2nnc(NCC3OCCO3)o2)nc2c(C(C)(C)C)cc(C3CC3)cc12` [Compound 283], the inhibition at 10 µM was determined as 100%.

As for `Cc1cc(C(=O)NCc2ccccn2)nc2c(C(F)(F)F)cc(CC(C)C)cc12` [Compound 140], the inhibition at 10 µM stood at 99.1%.

Take `Cc1cc(-c2nnc(NCCCO)o2)nc2c(C(C)(C)C)cc(C3CC3)cc12` [Compound 282]: the inhibition at 10 µM was 99.9%.

`Cc1cc(-c2nnc(NCc3ccccn3)o2)nc2c(C(F)(F)F)cc(C3CC3)cc12` [Compound 254]: the inhibition at 10 µM was found to be 99.7%.

Take `Cc1cc(-c2nnc(NCC3COCCO3)o2)nc2c(C(F)(F)F)cc(C3CC3)cc12` (centres unmarked) [Compound 250]: the inhibition at 10 µM turned out to be 99.9%.

Take `Cc1cc(C(=O)NCc2ccccn2)nc2c(C(F)(F)F)cc(C#CC3CC3)cc12` [Compound 147]: the inhibition at 10 µM was 94.1%.

For the compound `Cc1cc(C(=O)NCC2CCCCN2)nc2c(C(F)(F)F)cc(C3CCCC3)cc12` (centres unmarked) [Compound 151], the inhibition at 10 µM is 99.6%.

As to `Cc1cc(C(=O)NCC2CCCCN2C(=O)OC(C)(C)C)nc2c(C(F)(F)F)cc(C3CC3)cc12` (centres unmarked) [Compound 107], the inhibition at 10 µM amounted to 94.5%.

For the compound `O=C(NCC1C[S+]([O-])CCN1)c1cc(Cl)c2cc(OC(F)F)cc(C(F)(F)F)c2n1` (centres unmarked) [Compound 196], the inhibition at 10 µM turned out to be 55%.

On to `Cc1cc(-c2nnc(NCCCN3CCOCC3)s2)nc2c(C(F)(F)F)cc(C3CC3)cc12` [Compound 298], for which the inhibition at 10 µM is 88%.

Turning to `CCCCNc1nnc(-c2cc(C)c3cc(C4CC4)cc(C(F)(F)F)c3n2)o1` [Compound 244], the inhibition at 10 µM is 100%.

Regarding `Cc1cc(-c2nnc(NCCCNS(C)(=O)=O)s2)nc2c(C(F)(F)F)cc(C3CC3)cc12` [Compound 296], the inhibition at 10 µM amounted to 51.3%.

As for `CC(C)(C)c1cc(C2CC2)cc2c(Cl)cc(C(=O)NCC3COCCN3)nc12` (centres unmarked) [Compound 228], the inhibition at 10 µM turned out to be 94.7%.

Turning to `Cc1cc(-c2nnc(NCC3OCCO3)o2)nc2c(C(F)(F)F)cc(C3CC3)cc12` [Compound 246], the inhibition at 10 µM turned out to be 100%.

For `Cc1cc(C(=O)NCc2ccccn2)nc2c(C(C)(C)C)cc(C3CC3)cc12` [Compound 226], the inhibition at 10 µM turned out to be 100%.

Turning to `Cc1cc(-c2nnc(NC[C@@H](O)CO)s2)nc2c(C(F)(F)F)cc(C3CC3)cc12` [Compound 303], the inhibition at 10 µM turned out to be 98.2%.

As for `COCCNC(=O)CNC(=O)c1cc(C)c2cc(C3CC3)cc(C(F)(F)F)c2n1` [Compound 117], the inhibition at 10 µM amounted to 94.7%.

`Cc1cc(C(=O)NCCO)nc2c(C(F)(F)F)cc(-c3ccccc3)cc12` [Compound 166]: the inhibition at 10 µM was 93.8%.

For the compound `Cc1cc(-c2nnc(NCC(O)CO)s2)nc2c(C(F)(F)F)cc(C3CC3)cc12` (centres unmarked) [Compound 301], the inhibition at 10 µM turned out to be 99.6%.

`Cc1cc(C(=O)NC/C=C/c2ccccc2)nc2c(C(F)(F)F)cc(-c3ccccc3)cc12` [Compound 170]: the inhibition at 10 µM was 66.4%.

Consider `Cc1cc(C(=O)NCc2ccccn2)nc2c(OC(F)(F)F)cc(C3CC3)cc12` [Compound 234], for which the inhibition at 10 µM came out at 100%.

Regarding `COCCCNc1nnc(-c2cc(C)c3cc(C4CC4)cc(C(F)(F)F)c3n2)s1` [Compound 290], the inhibition at 10 µM came out at 99.9%.

Take `O=C(NCc1ccccn1)c1cc(Cl)c2cc(C3CC3)cc(C(F)(F)F)c2n1` [Compound 210]: the inhibition at 10 µM was found to be 99.9%.

On to `Cc1cc(C(=O)NC[C@@H]2CC(O)CN2)nc2c(C(F)(F)F)cc(OC(F)F)cc12` (some centres unmarked) [Compound 191], for which the inhibition at 10 µM was 50.2%.

Consider `Cc1cc(-c2nnc(N)o2)nc2c(C(F)(F)F)cc(C3CC3)cc12` [Compound 243], for which the inhibition at 10 µM was 88.4%.

As for `Cc1cc(C(=O)NCc2ccccn2)nc2c(C(F)(F)F)cc(N)cc12` [Compound 178], the inhibition at 10 µM was 86.9%.

The assay is the same for the next values; noted with them: Hepatitis C virus, Huh-7, 72 h, HCV1B replicon, Huh-7 cells, 3 days; read-out: EC50_HCV1B_.
In the case of `CCCCNc1nnc(-c2cc(N)c3cc(C4CC4)cc(C(C)(C)C)c3n2)o1` [Compound 344], the EC50 worked out at 0.011 µM.

As for `CCCNc1nnc(-c2cc(N)c3cc(C4CC4)cc(C(C)(C)C)c3n2)o1` [Compound 366], the EC50 amounted to 0.00201 µM.

Turning to `Cc1cc(-c2nnc(NCC3OCCO3)o2)nc2c(C(C)(C)C)cc(OCC(F)(F)F)cc12` [Compound 448], the EC50 is 0.00157 µM.

`Cc1cc(-c2nnc(N[C@H]3C[C@@H](O)C3)o2)nc2c(C(C)(C)C)cc(OCC(F)(F)F)cc12` [Compound 462]: the EC50 came out at 0.00154 µM.

In the case of `Cc1cc(-c2nnc(NCC(=O)N(C)C)o2)nc2c(C(C)(C)C)cc(OCC(F)(F)F)cc12` [Compound 453], the EC50 is 0.0149 µM.

On to `Cc1cc(-c2nnc(N[C@H]3C[C@@](O)(CF)C3)o2)nc2c(C(C)(C)C)cc(C3CC3)cc12` [Compound 516], for which the EC50 came to 0.00715 µM.

In the case of `CS(=O)(=O)N1CCNC(CNC(=O)c2cc(N)c3cc(OC(F)F)cc(C(F)(F)F)c3n2)C1` (centres unmarked) [Compound 318], the EC50 is 44.4 µM.

For the compound `Cc1cc(-c2nnc(NC3CCOCC3)o2)nc2c(C(C)(C)C)cc(OCC(F)(F)F)cc12` [Compound 488], the EC50 came out at 0.00682 µM.

For the compound `CCCCNc1nnc(-c2cc(Cl)c3cc(C4CC4)cc(C(C)(C)C)c3n2)s1` [Compound 378], the EC50 was 0.0489 µM.

As to `Nc1nnc(-c2cc(N)c3cc(C4CC4)cc(C(F)(F)F)c3n2)s1` [Compound 373], the EC50 stood at 0.065 µM.

For `Nc1nc(C(=O)NCc2cnccn2)nc2c(C(F)(F)F)cc(-c3ccccc3)cc12` [Compound 435], the EC50 was found to be 0.00784 µM.

Turning to `Nc1cc(C(=O)NC[C@@H]2CC(F)(F)CCN2)nc2c(C(F)(F)F)cc(OC(F)F)cc12` [Compound 314], the EC50 was 0.0261 µM.

As to `Cc1cc(-c2nnc(Nc3cn[nH]c3)o2)nc2c(C(C)(C)C)cc(C3CC3)cc12` [Compound 400], the EC50 turned out to be 0.0755 µM.

Regarding `Cc1cc(-c2nnc(NCc3ncc[nH]3)o2)nc2c(C(C)(C)C)cc(C3CC3)cc12` [Compound 394], the EC50 was determined as 1.13 µM.

Take `Cc1cc(-c2nnc(N[C@H]3C[C@@](O)(CF)C3)o2)nc2c(C(C)(C)C)cc(OCC(F)(F)F)cc12` [Compound 517]: the EC50 was 0.00576 µM.

In the case of `Cc1cc(-c2nnc(NCCO)s2)nc2c(C(F)(F)F)cc(C3CC3)cc12` [Compound 308], the EC50 is 0.066 µM.

In the case of `CO[C@H]1CN[C@H](CNC(=O)c2cc(N)c3cc(C4CC4)cc(C(C)(C)C)c3n2)C1` [Compound 323], the EC50 turned out to be 0.007 µM.

Turning to `CO[C@@H]1CN[C@H](CNC(=O)c2nc(N)c3cc(-c4ccccc4)cc(C(F)(F)F)c3n2)C1` [Compound 436], the EC50 is 0.589 µM.

Regarding `CCCCCCNc1nnc(-c2cc(C)c3cc(C4CC4)cc(C(F)(F)F)c3n2)o1` [Compound 389], the EC50 stood at 0.145 µM.

Consider `Cc1cc(-c2nnc(N[C@H]3CC[C@](O)(CF)C3)o2)nc2c(C(C)(C)C)cc(OCC(F)(F)F)cc12` [Compound 491], for which the EC50 is 0.00057 µM.

For `CC(C)(C)c1cc(C2CC2)cc2c(N)cc(-c3nnc(NCC(F)(F)F)o3)nc12` [Compound 345], the EC50 was 0.56 µM.

Regarding `Cc1cc(-c2nnc(NC3CCCC3)o2)nc2c(C(F)(F)F)cc(C3CC3)cc12` [Compound 390], the EC50 is 0.00175 µM.

Take `CC(C)(C)c1cc(C2CC2)cc2c(N)cc(-c3nnc(NC[C@@H]4CCCO4)o3)nc12` [Compound 350]: the EC50 was 0.0019 µM.

Consider `Cc1cc(-c2nnc(NC3COC3)o2)nc2c(C(C)(C)C)cc(OCC(F)(F)F)cc12` [Compound 487], for which the EC50 amounted to 0.0415 µM.

As to `CCCNc1nnc(-c2cc(C)c3cc(C4CC4)cc(C(F)(F)F)c3n2)o1` [Compound 387], the EC50 amounted to 0.0033 µM.

On to `CO[C@@H]1CN[C@H](CNC(=O)c2cc(N)c3cc(C4CC4)cc(C(C)(C)C)c3n2)C1` [Compound 328], for which the EC50 is 0.0159 µM.

Regarding `Cc1cc(-c2nnc(NCC3COC3)o2)nc2c(C(C)(C)C)cc(OCC(F)(F)F)cc12` [Compound 485], the EC50 came to 1.05 µM.

For the compound `Cc1cc(-c2nnc(NCc3ccn[nH]3)o2)nc2c(C(C)(C)C)cc(OCC(F)(F)F)cc12` [Compound 452], the EC50 worked out at 0.0196 µM.

For the compound `Cc1cc(-c2nnc(NCC3CC(F)(F)CN3)s2)nc2c(C(F)(F)F)cc(C3CC3)cc12` (centres unmarked) [Compound 310], the EC50 was 1.57 µM.

The assay is the same for the next values; noted with them: Hepatitis C virus, Huh-7, 72 h; read-out: EC50_HCV1B_.
Regarding `CCOP(=O)(CNc1nnc(-c2cc(C)c3cc(OCC(F)(F)F)cc(C(C)(C)C)c3n2)o1)OCC` [Compound 460], the EC50 turned out to be 0.388 µM.

The same assay, now with this note: Hepatitis C virus, Huh-7, 72 h; read-out: Inhibition @ 10 uM in 1b-Rluc.
Turning to `Cc1cc(-c2nnc(Nc3cccc(F)c3)o2)nc2c(C(F)(F)F)cc(C3CC3)cc12` [Compound 271], the inhibition at 10 µM is 100%.

As for `C=Cc1cc(C(F)(F)F)c2nc(C(=O)NCc3ccccn3)cc(C)c2c1` [Compound 152], the inhibition at 10 µM is 99.9%.
